Experiments:
[1] = system: participants with diabetic macular edema; assay: Retinal central subfield thickness by spectral-domain OCT, including synthetic controls from DRCR.net Protocol T; format: in vivo, human
Procedure: (§1) Propensity score methods were used to select DRCR.net Protocol T study participants similar to lamivudine-treated patients. Inverse probability treatment weights (IPTW) and propensity score matching were used. To estimate the IPTW weights, a multinomial logistic regression was used to estimate propensity scores using important predictors including baseline visual acuity and baseline central subfield thickness along with age, gender, and duration of diabetes. Weights were calculated as the reciprocal of the estimated propensity score of the actual treatment received. Weights were then truncated at the 99th percentile. For the propensity score matched analysis, lamivudine-treated patients were matched to each DRCR.net Protocol T treatment arm (aflibercept, bevacizumab, ranibizumab) and placebo group, separately. Due to the limited sample size for matching within each group, propensity score models included the most important predictors of acuity change including baseline visual acuity, age and duration of diabetes.
(§2) For the IPTW analysis, a mixed-effects weighted model was fit with subject-specific random effects. […] The model's estimates, confidence intervals (CI), and P values were reported for each predictor. Additionally, model-based contrasts were conducted to compare the change in VALS from baseline between lamivudine and the Protocol T treatments.
(§3) Secondary outcomes included the change in central subfield thickness, the percentage of eyes with an improvement in VALS of 15 or more, the correlation between improvements in visual acuity and central subfield thickness, and systemic and ocular adverse events. Change in central subfield thickness was estimated using mixed-effects models, similar to the VALS analysis. To analyze a VALS improvement of at least 15 letters, logistic regression using generalized estimating equations (GEEs) was specified with an exchangeable correlation matrix. Model-based contrasts were estimated to make pairwise treatment comparisons.
In all consultations, patients underwent tomography with the Spectralis device (Heidelberg) under mydriasis. The acquisition protocol was the 6×6 mm region centered on the fovea. Data analysis from SD-OCT was restricted to the central field (1 mm in diameter) Intravitreous Injection of Anti-VEGF

[2] = system: participants with diabetic macular edema; assay: Visual acuity (VALS) compared with synthetic controls from the DRCR.net Protocol T study (IPTW, propensity score matching, GEE); format: in vivo, human; details: for Model-based contrast: change in visual acuity, Lamivudine vs. Aflibercept / Model-based contrast: change in visual acuity, Lamivudine vs. Bevacizumab / Model-based contrast: change in visual acuity, Lamivudine vs. Ranibizumab: IPTW model; for Mixed-effect model: change in visual acuity from baseline, Lamivudine vs Placebo / Mixed-effect model: change in visual acuity from baseline, Lamivudine vs. Aflibercept / Mixed-effect model: change in visual acuity from baseline, Lamivudine vs. Bevacizumab / Mixed-effect model: change in visual acuity from baseline, Lamivudine vs. Ranibizumab: propensity score matching
Description: The second analysis included participants from the lamivudine versus placebo trial, along with a synthetic comparator created using data from the DRCR.net Protocol T study. The source of the data is DRCR.net (2018) A Comparative Effectiveness Study of Intravitreal Aflibercept, Bevacizumab and Ranibizumab for Diabetic Macular Edema, retrieved from https://public.jaeb.org/drcrnet/stdy/download/206. The analyses, content, and conclusions presented herein are solely the responsibility of the authors and have not been reviewed or approved by DRCR.net.
Inclusion criteria for participants from the DRCR.net Protocol T study were based on their similarity to the lamivudine versus placebo trial design. This involved selecting only patients with type 2 diabetes, study eyes with a baseline VALS<69, and complete follow-up visual acuity measurements at weeks 4 and 8.
as §1, §2
For each propensity score matched group (e.g., lamivudine-bevacizumab, lamivudine-aflibercept), a mixed effect model was fit estimating the change in visual acuity from baseline. Subject specific random effect was included along with fixed effect predictors: treatment group, baseline VALS, central subfield thickness, eye (left vs right), age, sex, race and type 2 diabetes duration.
as §3

Nc1ccn([C@@H]2CS[C@H](CO)O2)c(=O)n1 [Lamivudine]
IPTW mixed-effect model: change in central subfield thickness, Treatment × week [8] estimate ([1]; IPTW model, interaction term): 41.98 μm | IPTW mixed-effect model: change in central subfield thickness from baseline, treatment estimate (ref = Placebo) ([1]; IPTW model, main effect (week 4)): −48.84 μm | IPTW contrast: change in central subfield thickness, Lamivudine vs Bevacizumab ([1]; week 4): 17.5 μm | IPTW contrast: change in central subfield thickness, Lamivudine vs Placebo ([1]; week 4): −48.84 μm | IPTW contrast: change in central subfield thickness, Lamivudine vs. Aflibercept ([1]; week 4): 55.49 μm | IPTW contrast: change in central subfield thickness, Lamivudine vs. Ranibizumab ([1]; week 4): 64.83 μm | IPTW contrast: change in central subfield thickness, Lamivudine vs. Aflibercept ([1]; week 4, listed as lamivudine): 55 μm | IPTW contrast: change in central subfield thickness, Lamivudine vs. Ranibizumab ([1]; week 4, listed as lamivudine): 65 μm | IPTW contrast: change in central subfield thickness, Lamivudine vs Bevacizumab ([1]; week 8): −15.34 μm | IPTW contrast: change in central subfield thickness, Lamivudine vs Placebo ([1]; week 8): −6.86 μm | IPTW contrast: change in central subfield thickness, Lamivudine vs. Aflibercept ([1]; week 8): 28.93 μm | IPTW contrast: change in central subfield thickness, Lamivudine vs. Ranibizumab ([1]; week 8): 31.81 μm | Propensity score matched contrast: change in central subfield thickness, Lamivudine vs. Aflibercept ([1]; week 4): 92.6 μm | Propensity score matched contrast: change in central subfield thickness, Lamivudine vs. Bevacizumab ([1]; week 4): 12.6 μm | Propensity score matched contrast: change in central subfield thickness, Lamivudine vs. Placebo ([1]; week 4): −47.7 μm | Propensity score matched contrast: change in central subfield thickness, Lamivudine vs. Ranibizumab ([1]; week 4): 115.7 μm | Propensity score matched contrast: change in central subfield thickness, Lamivudine vs. Aflibercept ([1]; week 4, listed as lamivudine): 93 μm | Propensity score matched contrast: change in central subfield thickness, Lamivudine vs. Ranibizumab ([1]; week 4, listed as lamivudine): 116 μm | Propensity score matched contrast: change in central subfield thickness, Lamivudine vs. Aflibercept ([1]; week 8): 21.2 μm | Propensity score matched contrast: change in central subfield thickness, Lamivudine vs. Bevacizumab ([1]; week 8): −63.4 μm | Propensity score matched contrast: change in central subfield thickness, Lamivudine vs. Placebo ([1]; week 8): −38.1 μm | Propensity score matched contrast: change in central subfield thickness, Lamivudine vs. Ranibizumab ([1]; week 8): 37.1 μm | Mixed-effect model: change in central subfield thickness, Treatment × week [8] estimate ([1]; unweighted model, interaction term): 3.8 μm | Mixed-effect model: change in central subfield thickness from baseline, treatment estimate (ref = Placebo) ([1]; unweighted model, main effect (week 4)): −44.91 μm | Contrast: change in central subfield thickness, Lamivudine vs Bevacizumab ([1]; unweighted model, week 4): 30.65 μm | Contrast: change in central subfield thickness, Lamivudine vs Placebo ([1]; unweighted model, week 4): −44.91 μm | Contrast: change in central subfield thickness, Lamivudine vs. Aflibercept ([1]; unweighted model, week 4): 69.64 μm | Contrast: change in central subfield thickness, Lamivudine vs. Ranibizumab ([1]; unweighted model, week 4): 77.22 μm | Contrast: change in central subfield thickness, Lamivudine vs Bevacizumab ([1]; unweighted model, week 8): −50.42 μm | Contrast: change in central subfield thickness, Lamivudine vs Placebo ([1]; unweighted model, week 8): −41.1 μm | Contrast: change in central subfield thickness, Lamivudine vs. Aflibercept ([1]; unweighted model, week 8): −1.39 μm | Contrast: change in central subfield thickness, Lamivudine vs. Ranibizumab ([1]; unweighted model, week 8): −4.66 μm | percentage of eyes with VALS improvement of 15 or more that had minimal improvement in central subfield thickness (≤50 μm) ([1]; week 8, lamivudine group): 64% | Model-based contrast: change in visual acuity, Lamivudine vs. Aflibercept [2]: 3.73 | Model-based contrast: change in visual acuity, Lamivudine vs. Bevacizumab [2]: 6.83 | Model-based contrast: change in visual acuity, Lamivudine vs. Ranibizumab [2]: 5.04 | Mixed effect model: change from baseline visual acuity, treatment estimate (ref: Placebo) ([2]; IPTW model with synthetic controls): 12.15 | Mixed effect model: change from baseline visual acuity, treatment estimate (ref: Placebo) ([2]; IPTW model with synthetic controls, listed as lamivudine): 12.2 | Model-based contrast: change in visual acuity, Lamivudine vs. Aflibercept ([2]; listed as lamivudine): 3.7 | Model-based contrast: change in visual acuity, Lamivudine vs. Bevacizumab ([2]; listed as lamivudine): 6.8 | Model-based contrast: change in visual acuity, Lamivudine vs. Ranibizumab ([2]; listed as lamivudine): 5.0 | Mixed effect model: change from baseline visual acuity, treatment estimate (ref: Placebo) ([2]; Original (unweighted) model with synthetic controls): 11.19 | Mixed-effect model: change in visual acuity from baseline, Lamivudine vs Placebo [2]: 10.88 | Mixed-effect model: change in visual acuity from baseline, Lamivudine vs. Aflibercept [2]: 2.33 | Mixed-effect model: change in visual acuity from baseline, Lamivudine vs. Bevacizumab [2]: 8.95 | Mixed-effect model: change in visual acuity from baseline, Lamivudine vs. Ranibizumab [2]: 7.24 | Mixed-effect model: change in visual acuity from baseline, Lamivudine vs Placebo ([2]; listed as lamivudine): 10.9 | Mixed-effect model: change in visual acuity from baseline, Lamivudine vs. Aflibercept ([2]; listed as lamivudine): 2.3 | Mixed-effect model: change in visual acuity from baseline, Lamivudine vs. Bevacizumab ([2]; listed as lamivudine): 9 | Mixed-effect model: change in visual acuity from baseline, Lamivudine vs. Ranibizumab ([2]; listed as lamivudine): 7.3

From patent publication US20260191861A1, “INFLAMMASOME AND VEGF INHIBITION FOR RETINAL VASCULAR DISEASES” (University of Virginia Patent Foundation, priority 2022, published 2026)
